Measurements reported in PMC6479946 (Molecules, 2019).
Values joined by “and” are separate entries in the source; they are usually repeats but may differ in a detail not shown here. Identical values can stand only once. Like-named read-outs stand apart in the source and are kept apart here.

Key:
in vivo = settings: for AUC(0-inf) / Tmax / AUC(0-t) / CL/F / Cmax / k el / MRT: male, Sprague-Dawley, po, 5 mg/kg; for AUC(0-inf): AUC(0-∞) of MEM; for AUC(0-inf) / Tmax / AUC(0-t) / CL/F / Cmax / k el / MRT / Ka of MEM / T1/2a of MEM / T1/2d of MEM / Vd of MEM: n = 8, mean ± SD; for Tmax: Tmax of MEM; for AUC(0-t): AUC(0-t) of MEM; for CL/F: CL/F of MEM; for Cmax: Cmax of MEM; for k el: Ke of MEM; for MRT: MRT of MEM
Procedure: The analytes were separated on an ACQUITY UPLC BEH C18 column (2.1 mm × 50 mm, 1.7 μm, Waters, Milford, USA). […] The flow rate was 0.3 mL/min. The column and sample-tray temperature were kept at 40 °C and 4 °C, respectively. The injection volume was 5.0 μL using a partial loop with needle over fill mode.
The compound dependent parameters used for analysis were summarized in Supplementary materials Table S1.
A rapid and convenient precipitation method was used to prepare the plasma samples. A 100 μL aliquot of plasma sample was spiked with 100 μL of IS solution and 300 μL of methanol in a 1.5 mL centrifuge tube; subsequently, the mixtures were vortex-mixed for 30.0 s and then centrifuged at 1.5 × 10^4× g for 10 min at 4 °C. A 100 μL aliquot of supernatant was combined with 25.0 μL of 0.1% formic acid water in a clean centrifuge tube and then vortex-mixed for 30 s. A 5.0 μL aliquot of mixture was injected into the UPLC-MS/MS system for analysis.
Fifty-six pathogen-free male adult rats were randomly divided into seven groups with eight rats in each group for pharmacokinetic study. […] One group was intragastrically administered with MEM hydrochloride 5.0 mg/kg dissolved in ultrapure water, namely, MEM group. […] The blood samples were immediately centrifuged at 4.0 × 10^3× g at […] for 10 min, and 100 μL of the supernatant plasma was transferred into another new 1.5 mL centrifuge tube and stored at −20 °C until UPLC-MS/MS analysis.
All standard curves and quantitative data were processed by Agilent Mass Hunter Quantitative Analysis Workstation Software. […] All the pharmacokinetic parameters were processed using the non-compartmental pharmacokinetics data analysis software program PK solutions 2.0^TM (Summit Research Services, USA). […] The AUC(0-t) was obtained by the linear/logarithmic trapezoidal rule, and the area under the plasma concentration versus time curve from zero to infinity (AUC(0-∞)) was calculated by means of the trapezoidal rule with extrapolation to infinity with a terminal elimination rate constant. The Pearson correlation coefficient analysis was processed by IBM SPSS Statistics Version 21. A statistical analysis was performed using analysis of variance with α = 0.05 as the minimal level of significance.

[1] = rats, cited from earlier work
CYP2D6 = settings: rat liver microsomes; cited from earlier work
CYP1A2 = settings: rat liver microsomes; cited from earlier work
CYP3A4 = settings: rat liver microsomes; cited from earlier work
[2] = rat, plasma, rat plasma, oral MEM 5.0 mg/kg + HAR 20.0 mg/kg (HAR-L + MEM)
[3] = rat, plasma, rat plasma, oral MEM 5.0 mg/kg + HAR 40.0 mg/kg (HAR-M + MEM)
[4] = rat, plasma, rat plasma, oral MEM 5.0 mg/kg + HAR 80.0 mg/kg (HAR-H + MEM)
[5] = rat, plasma, rat plasma, oral MEM 5.0 mg/kg alone (MEM group)
[6] = rat plasma, oral MEM 5.0 mg/kg + HAR 20.0 mg/kg (HAR-L + MEM)
[7] = rat plasma, oral MEM 5.0 mg/kg + HAR 40.0 mg/kg (HAR-M + MEM)
[8] = rat plasma, oral MEM 5.0 mg/kg + HAR 80.0 mg/kg (HAR-H + MEM)
[9] = rat plasma, oral MEM 5.0 mg/kg alone (MEM group)

CC12CC3CC(C)(C1)CC(N)(C3)C2 [MEM, 1-amino-3,5-dimethyladamantane, reference compound]
AUC(0-inf) (in vivo; rat, in vivo, rat plasma, oral MEM 5.0 mg/kg + HAR 80.0 mg/kg (HAR-H + MEM)): 781 ± 285 ng·h/mL | Tmax (in vivo; rat, in vivo, rat plasma, oral MEM 5.0 mg/kg + HAR 20.0 mg/kg (HAR-L + MEM)): 3.13 ± 2.23 h | AUC(0-t) (in vivo; [2]): 392 ± 55.2 ng·h/mL | AUC(0-t) (in vivo; [3]): 472 ± 105 ng·h/mL | AUC(0-t) (in vivo; [4]): 603 ± 149 ng·h/mL | AUC(0-t) (in vivo; [5]): 349 ± 46.2 ng·h/mL | AUC(0-inf) (in vivo; [2]): 477 ± 75.1 ng·h/mL | AUC(0-inf) (in vivo; [3]): 547 ± 142 ng·h/mL | AUC(0-inf) (in vivo; [5]): 367 ± 4.87 ng·h/mL | CL/F (in vivo; [2]): 178 mL/min/kg | CL/F (in vivo; [3]): 162 mL/min/kg | CL/F (in vivo; [4]): 118 mL/min/kg | CL/F (in vivo; [5]): 230 mL/min/kg | Cmax (in vivo; [2]): 50.5 ± 7.59 ng/mL | Cmax (in vivo; [3]): 74.9 ± 15 ng/mL | Cmax (in vivo; [4]): 74.3 ± 26.6 ng/mL | Cmax (in vivo; [5]): 84.8 ± 25.8 ng/mL | k el (in vivo; [2]): 5.31e-05 s⁻¹ | k el (in vivo; [3]): 5.97e-05 s⁻¹ | k el (in vivo; [4]): 5.64e-05 s⁻¹ | k el (in vivo; [5]): 7.25e-05 s⁻¹ | MRT (in vivo; [2]): 7.45 ± 1.51 h | MRT (in vivo; [3]): 6.25 ± 1.25 h | MRT (in vivo; [4]): 8.5 ± 3.74 h | MRT (in vivo; [5]): 4.04 ± 0.808 h | Tmax (in vivo; [3]): 1.56 ± 1.11 h | Tmax (in vivo; [4]): 4 ± 1.85 h | Tmax (in vivo; [5]): 1.31 ± 0.579 h | Ka of MEM (in vivo; [6]): 0.595 ± 0.315 h⁻¹ | T1/2a of MEM (in vivo; [6]): 1.37 ± 0.468 h | T1/2d of MEM (in vivo; [6]): 2.42 ± 1.06 h | Vd of MEM (in vivo; [6]): 60.1 ± 19.3 L/kg | Ka of MEM (in vivo; [7]): 1.08 ± 1.05 h⁻¹ | T1/2a of MEM (in vivo; [7]): 0.945 ± 0.398 h | T1/2d of MEM (in vivo; [7]): 1.67 ± 0.560 h | Vd of MEM (in vivo; [7]): 48.4 ± 16.4 L/kg | Ka of MEM (in vivo; [8]): 0.481 ± 0.203 h⁻¹ | T1/2a of MEM (in vivo; [8]): 1.61 ± 0.459 ^bb h | T1/2d of MEM (in vivo; [8]): 1.61 ± 0.529 h | Vd of MEM (in vivo; [8]): 38.3 ± 13.1 L/kg | MEM in plasma within 24.0 h after co-administrations (in vivo; rat plasma, oral MEM 5.0 mg/kg + HAR 20.0, 40.0 or 80.0 mg/kg): a small amount of MEM could still be detected | MEM in plasma after 24 h of administration (in vivo; [9]): no MEM was detected | Ka of MEM (in vivo; [9]): 1.73 ± 0.848 h⁻¹ | T1/2a of MEM (in vivo; [9]): 0.482 ± 0.202 h | T1/2d of MEM (in vivo; [9]): 3.08 ± 2.37 h | Vd of MEM (in vivo; [9]): 53.8 ± 10.6 L/kg | T1/2e of MEM (in vivo; rat, in vivo): 2.69 ± 0.306 h and 3.96 ± 1.44 h and 3.62 ± 1.42 h and 4.27 ± 3.03 h | T1/2e of MEM ([1]; administered orally with 1.22 mg eq./mL MEM): 2.23 h | T1/2e of MEM ([1]; administered orally with 2.00 mg eq./mL MEM): 3.92 h | inhibition of CYP2D6 (CYP2D6): strong inhibitor | inhibition of CYP1A2 (CYP1A2): weak inhibitor | inhibition of CYP3A4 (CYP3A4): weak inhibitor
